Molecules are shown by their SMILES. “And” between values parts separate entries of the source, which are not always exact repeats. Equal entries are not always repeated. Inconclusive results and toxic doses are left out.

The values below come from PubChem BioAssay AID248 (DTP/NCI, 2004).

The experiment relates to L1210 leukemia ip in BDF1 mice, survival T/C. Put plainly: NCI In Vivo Anticancer Drug Screen. Data for tumor model L1210 Leukemia (intraperitoneal) in B6D2F1 (BDF1) mice. To be noted: endpoint: mean survival time, higher = longer survival. The gist of the method: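 Survival endpoint. Drug-treated group vs vehicle group, expressed as T divided by C. Tumor passaged by transplantation.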

The mark [1] stands for this setting: dose: 100.0 mg/kg/injection, schedule: Q01DX009 (ip), vehicle: saline.
Setting [2] is: dose: 200.0 mg/kg/injection, schedule: Q01DX009 (ip), vehicle: saline.
The mark [3] stands for this setting: dose: 100.0 mg/kg/injection, schedule: Q01DX001 (ip), vehicle: Klucel (hydroxypropylcellulose) (HPC).
The mark [4] stands for this setting: dose: 200.0 mg/kg/injection, schedule: Q01DX001 (ip), vehicle: Klucel (hydroxypropylcellulose) (HPC).
Where [5] appears, read: dose: 100.0 mg/kg/injection, schedule: Q04DX003 (ip), vehicle: Klucel (hydroxypropylcellulose) (HPC).
The mark [6] stands for this setting: dose: 200.0 mg/kg/injection, schedule: Q04DX003 (ip), vehicle: Klucel (hydroxypropylcellulose) (HPC).
Where [7] appears, read: dose: 400.0 mg/kg/injection, schedule: Q04DX003 (ip), vehicle: Klucel (hydroxypropylcellulose) (HPC).
Where [8] appears, read: dose: 100.0 mg/kg/injection, schedule: Q01DX001 (ip), vehicle: saline.
[9] abbreviates: dose: 200.0 mg/kg/injection, schedule: Q01DX001 (ip), vehicle: saline.
[10] abbreviates: dose: 400.0 mg/kg/injection, schedule: Q01DX001 (ip), vehicle: saline.
The mark [11] stands for this setting: dose: 100.0 mg/kg/injection, schedule: Q04DX002 (ip), vehicle: saline with Tween-80.
Setting [12] is: dose: 200.0 mg/kg/injection, schedule: Q04DX002 (ip), vehicle: saline with Tween-80.
[13] abbreviates: dose: 400.0 mg/kg/injection, schedule: Q04DX002 (ip), vehicle: saline with Tween-80.

For the compound `CN(C(=O)N(CCCl)N=O)C1CCC(C(=O)O)CC1` (stereo not given), the T/C is 95 % of control (dose: 12.0 mg/kg/injection, schedule: Q01DX009 (ip), vehicle: alkali diluted with saline); 103 % of control (dose: 18.0 mg/kg/injection, schedule: Q01DX009 (ip), vehicle: alkali diluted with saline); 93 % of control (dose: 24.0 mg/kg/injection, schedule: Q01DX001 (ip), vehicle: saline + Tween-80 + alkali); 103 % of control (dose: 26.0 mg/kg/injection, schedule: Q01DX009 (ip), vehicle: alkali diluted with saline); 98 % of control (dose: 36.0 mg/kg/injection, schedule: Q01DX001 (ip), vehicle: saline + Tween-80 + alkali); 111 % of control (dose: 40.0 mg/kg/injection, schedule: Q01DX009 (ip), vehicle: alkali diluted with saline). For the same compound, the T/C is, setting by setting: (dose: 54.0 mg/kg/injection, schedule: Q01DX001 (ip), vehicle: saline + Tween-80 + alkali) 98 % of control; (dose: 60.0 mg/kg/injection, schedule: Q01DX009 (ip), vehicle: alkali diluted with saline) 119 % of control; (dose: 80.0 mg/kg/injection, schedule: Q01DX001 (ip), vehicle: saline + Tween-80 + alkali) 104 % of control; (dose: 120.0 mg/kg/injection, schedule: Q01DX001 (ip), vehicle: saline + Tween-80 + alkali) 113 % of control; (dose: 180.0 mg/kg/injection, schedule: Q01DX001 (ip), vehicle: saline + Tween-80 + alkali) 121 % of control; (dose: 400.0 mg/kg/injection, schedule: Q01DX001 (ip), vehicle: saline + Tween-80 + alkali) 180 % of control.

Regarding `O=[N+]([O-])c1ccc2c(c1)-c1ccccc1C2Br` (stereo not given), the T/C reads like this: (dose: 100.0 mg/kg/injection, schedule: Q01DX005 (ip), vehicle: Klucel (hydroxypropylcellulose) (HPC)) 88 % of control; (dose: 100.0 mg/kg/injection, schedule: Q04DX002 (ip), vehicle: Klucel (hydroxypropylcellulose) (HPC)) 117 % of control; (dose: 200.0 mg/kg/injection, schedule: Q04DX002 (ip), vehicle: Klucel (hydroxypropylcellulose) (HPC)) 101 % of control; (dose: 400.0 mg/kg/injection, schedule: Q01DX005 (ip), vehicle: Klucel (hydroxypropylcellulose) (HPC)) 102 % of control; (dose: 400.0 mg/kg/injection, schedule: Q04DX002 (ip), vehicle: Klucel (hydroxypropylcellulose) (HPC)) 90 % of control.

`Oc1ccc(Cl)cc1/C=N/Nc1nnc(N/N=C/c2cc(Cl)ccc2O)c2ccccc12`: the T/C reads like this: (dose: 50.0 mg/kg/injection, schedule: Q01DX001 (ip), vehicle: carboxymethylcellulose (CMC)) 90 % of control; (dose: 100.0 mg/kg/injection, schedule: Q01DX001 (ip), vehicle: carboxymethylcellulose (CMC)) 93 % of control; (dose: 200.0 mg/kg/injection, schedule: Q01DX001 (ip), vehicle: carboxymethylcellulose (CMC)) 95 % of control; (dose: 400.0 mg/kg/injection, schedule: Q01DX001 (ip), vehicle: carboxymethylcellulose (CMC)) 95 % of control.

Take `O=C(O)c1ccccc1C(=O)c1cccs1`: the T/C runs as follows: under setting [1], 94 % of control; (dose: 100.0 mg/kg/injection, schedule: Q04DX003 (ip), vehicle: other) 113 % of control; under setting [2], 97 % of control; (dose: 200.0 mg/kg/injection, schedule: Q04DX003 (ip), vehicle: other) 105 % of control; (dose: 400.0 mg/kg/injection, schedule: Q01DX009 (ip), vehicle: saline) 96 % of control; (dose: 400.0 mg/kg/injection, schedule: Q04DX003 (ip), vehicle: other) 94 % of control.

On to `COC(=O)C1CCC(NC(=O)NCCCl)CC1` (stereo not given), for which the T/C runs as follows: under setting [3], 95 % of control and 103 % of control; under setting [4], 93 % of control and 97 % of control; (dose: 400.0 mg/kg/injection, schedule: Q01DX001 (ip), vehicle: Klucel (hydroxypropylcellulose) (HPC)) 95 % of control.

Consider `CCCCCCCCCCCCNC(=O)Nc1cc(C)ccc1C`, for which the T/C by setting is: (dose: 100.0 mg/kg/injection, schedule: Q01DX009 (ip), vehicle: Klucel (hydroxypropylcellulose) (HPC)) 97 % of control; under setting [5], 94 % of control; (dose: 200.0 mg/kg/injection, schedule: Q01DX009 (ip), vehicle: Klucel (hydroxypropylcellulose) (HPC)) 86 % of control; under setting [6], 95 % of control; (dose: 400.0 mg/kg/injection, schedule: Q01DX009 (ip), vehicle: Klucel (hydroxypropylcellulose) (HPC)) 86 % of control; under setting [7], 97 % of control.

For the compound `CCN(CC)C(=O)c1c(Cl)n(C)c2ccccc12`, the T/C is 95 % of control (dose: 12.5 mg/kg/injection, schedule: Q04DX003 (ip), vehicle: Klucel (hydroxypropylcellulose) (HPC)); 104 % of control (dose: 25.0 mg/kg/injection, schedule: Q04DX003 (ip), vehicle: Klucel (hydroxypropylcellulose) (HPC)); 104 % of control (dose: 50.0 mg/kg/injection, schedule: Q04DX003 (ip), vehicle: Klucel (hydroxypropylcellulose) (HPC)).

For `CCc1cccc2c1C(=O)OC2=O`, the T/C under setting [1] was 94 % of control and the T/C under setting [2] is 91 % of control.

Take `CCN(CC)CCCC(C)NC(=O)c1cccc2c([N+](=O)[O-])cccc12` (stereo not given): the T/C reads like this: (dose: 25.0 mg/kg/injection, schedule: Q01DX009 (ip), vehicle: water) 100 % of control; (dose: 50.0 mg/kg/injection, schedule: Q01DX009 (ip), vehicle: water) 108 % of control; (dose: 100.0 mg/kg/injection, schedule: Q01DX009 (ip), vehicle: water) 103 % of control.

As to `c1ccc(CCN2CCC(CCc3c[nH]c4ccccc34)CC2)cc1`, the T/C is 96 % of control (dose: 50.0 mg/kg/injection, schedule: Q01DX001 (ip), vehicle: saline) and 117 % of control under setting [8].

In the case of `O/N=C\CC/C=N\O`, the T/C under setting [5] is 105 % of control, the T/C under setting [6] was 98 % of control and the T/C under setting [7] was 100 % of control.

Turning to `NC(=O)NN=C1CSSC1`, the T/C by setting is: (dose: 1.56 mg/kg/injection, schedule: Q01DX009 (ip), vehicle: saline with Tween-80) 101 % of control; (dose: 3.12 mg/kg/injection, schedule: Q01DX009 (ip), vehicle: saline with Tween-80) 99 % of control; (dose: 6.25 mg/kg/injection, schedule: Q01DX009 (ip), vehicle: saline with Tween-80) 94 % of control; (dose: 6.25 mg/kg/injection, schedule: Q04DX003 (ip), vehicle: saline with Tween-80) 97 % of control; (dose: 12.5 mg/kg/injection, schedule: Q01DX009 (ip), vehicle: saline with Tween-80) 98 % of control and 106 % of control; (dose: 12.5 mg/kg/injection, schedule: Q04DX003 (ip), vehicle: saline with Tween-80) 97 % of control.

For the compound `CC1CCCC2OC(=O)C(C(N)=O)C12` (stereo not given), the T/C was 95 % of control under setting [8], 100 % of control under setting [9] and 97 % of control under setting [10].

For `C#CC1=CCCC1`, the T/C under setting [8] is 95 % of control, the T/C under setting [9] was 100 % of control and the T/C under setting [10] is 95 % of control.

With `CC(C)c1ccc(/C=C\C(=O)c2ccc(-c3ccccc3)cc2)cc1`, the T/C by setting is: (dose: 100.0 mg/kg/injection, schedule: Q01DX009 (ip), vehicle: saline with Tween-80) 103 % of control; under setting [11], 86 % of control; (dose: 200.0 mg/kg/injection, schedule: Q01DX009 (ip), vehicle: saline with Tween-80) 106 % of control; under setting [12], 101 % of control; under setting [13], 101 % of control.

As to `O=P(CCc1ccccc1)(OCCCl)OCCCl`, the T/C is, setting by setting: under setting [11], 99 % of control; under setting [12], 96 % of control; under setting [13], 92 % of control.

`O=C(NCC(O)CNC(=O)Nc1ccc(C2=NCC(O)CN2)cc1)Nc1ccc(C2=NCC(O)CN2)cc1` (stereo not given): the T/C reads like this: (dose: 25.0 mg/kg/injection, schedule: Q01DX Z (ip), vehicle: carboxymethylcellulose (CMC)) 100 % of control; (dose: 50.0 mg/kg/injection, schedule: Q01DX Z (ip), vehicle: carboxymethylcellulose (CMC)) 108 % of control; (dose: 100.0 mg/kg/injection, schedule: Q01DX Z (ip), vehicle: carboxymethylcellulose (CMC)) 121 % of control.

For the compound `CC1(C)Cc2cccc(C(=O)CCCN3CCC4(CC3)C(=O)NCN4c3ccccc3)c2O1`, the T/C runs as follows: (dose: 50.0 mg/kg/injection, schedule: Q01DX001 (ip), vehicle: Klucel (hydroxypropylcellulose) (HPC)) 100 % of control; under setting [3], 102 % of control; under setting [4], 93 % of control.
